Laboratory results as given in the METLIN SMRT retention time set (Domingo-Almenara et al. 2019).

Assay: gradient 5% acetonitrile 3 min, to 50% in 2 min, to 85% in 15 min, held 3 min, 100 µL/min
Conditions: column: Zorbax Extend-C18 2.1 x 50 mm; eluents: water / acetonitrile, 0.1% formic acid
In short: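 Retention times come from adduct peaks that were picked computationally and then checked by hand. The standards, pure and pooled in mixtures of ~100 molecules, were run on a Zorbax Extend-C18 column (2.1 × 50 mm, 1.8 μm) at 100 μL/min with water and acetonitrile, each with 0.1% formic acid. Detection was by quadrupole time-of-flight mass spectrometry in positive and negative ionization mode, with a dead volume of 40 μL and a dwell volume of 900 μL.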

Row | Compound | RP-LC retention time [s]
1 | Cc1nn(-c2ccccc2)c(C)c1S(=O)(=O)N1CCN(c2ccccn2)CC1 | 664
2 | O=C(Nc1ccccc1)c1cnn2c1CCCC2 | 699
3 | Cn1nccc1C(=O)N1CCC(Cc2nc(C3CC3)n[nH]2)C1 (configuration not stated) | 578
4 | CCOc1nccnc1N1CCC(NC(=O)Cc2cccnc2)C1 (configuration not stated) | 534
5 | CCS(=O)(=O)N1CC(=O)N(c2cc(C)ccc2C)C(C)(C(=O)NC2CCCCCC2)C1 (configuration not stated) | 951
6 | COc1cc(C(=O)N2CCN(c3cc(=O)n(C(C)C)c(=O)n3C(C)C)CC2)cc(OC)c1OC | 800
7 | CN1CCN(C(=O)O[C@H]2c3nccnc3C(=O)N2c2ccc(Cl)cn2)CC1 | 660
8 | O=C(NCCc1ccncc1)C1CC(=O)N(c2n[nH]c3cc(Br)ccc23)C1 (configuration not stated) | 601
9 | Cc1ccc(S(=O)(=O)N2CCC(c3nc(-c4ccccn4)no3)CC2)cc1C | 970
10 | O=C(CCC1CCCC1)N1CCN(C(=O)c2cc(-c3cccnc3)n[nH]2)CC1 | 652
11 | Cc1ccccc1NC(=O)Cn1nc2n(c1=O)CCCC2 | 630
12 | COc1ccc(C(=O)NC2CCN(c3cc(C)cc(C)c3)C2=O)cc1 (configuration not stated) | 878
13 | Cn1c(=O)c2cc(C(=O)N3CCN(c4ccc(Cl)cc4)CC3)sc2n(C)c1=O | 862
14 | O=C(CSc1ccc(N2CCN(c3ccc(F)cc3)CC2)nn1)NCC1CCCO1 (configuration not stated) | 689
15 | CCOC(=O)N1CCN(C(c2ccc(F)cc2)c2sc3ncnn3c2O)CC1 (configuration not stated) | 667
16 | CC1CCN(Cc2csc(N3CCN(C(=O)c4ccc(C#N)cc4)CC3)n2)CC1 | 638
17 | COC(=O)c1c(NCCO)c2cccc(Cl)c2[nH]c1=O | 610
18 | CCCn1c(=O)sc2cc(S(=O)(=O)N3CCC(C(=O)NC4CCC(C)CC4)CC3)ccc21 (configuration not stated) | 1030
19 | O=C(O)C1CCN(c2ncnc3nc[nH]c23)CC1 | 548
20 | CCOC(=O)N1CCC(N2CCCC(COc3ccccc3C(=O)N3CCCC3)C2)CC1 (configuration not stated) | 612
21 | Cn1ccc2c(cc(C(=O)N3CCN(c4ccc(F)cc4)CC3)n2C)c1=O | 689
22 | CCOc1ccccc1C(=O)n1nc(C)c(S(=O)(=O)N2CCOCC2)c1C | 962
23 | CCc1ccccc1N1C(=O)CC(N2CCC(C(N)=O)CC2)C1=O (configuration not stated) | 591
24 | Cc1nc(-c2ccc(N3CCN(C(=O)c4ccc5c(c4)OCO5)CC3)nc2)sc1C | 813
25 | CCOC(=O)C1CCN(C(=O)CCc2nc(-c3ccc(N4CCCC4)cc3)no2)CC1 | 1030
26 | C=CCNc1c(C(=O)OC)c(=O)[nH]c2c(Cl)cccc12 | 700
27 | CS(=O)(=O)N1CCC(OC2CCN(C(=O)Nc3ccc(F)cc3)CC2)CC1 | 729
28 | CNC(=O)c1csc2c1CCCCC2 | 787

Row | Compound | RP-LC retention time [s]
29 | CCOCCCNC(=O)c1cc2n(n1)CCCN(Cc1ccccc1)C2=O | 724
30 | COc1ccccc1NC(=O)C1CCN(c2cc(N3CCCCC3)ncn2)CC1 | 700
31 | COc1ccccc1N1CCN(C(=O)C2CCN(c3nc(NC(C)=O)ns3)CC2)CC1 | 641
32 | CCC(=O)N(C1CCOCC1)C1CCN(S(=O)(=O)c2ccc(C)c(C)c2)CC1 | 869
33 | Cc1cc(NC(=O)C2CCCN(c3cnc4nccnc4c3)C2)ccc1F (configuration not stated) | 769
34 | CCNC(=O)Nc1ccc2c(c1)CN(S(=O)(=O)c1cn(C)cn1)CCO2 | 625
35 | CC(=O)N1CCC(C(=O)N2CCN(S(=O)(=O)c3ccc4c(c3)sc(=O)n4C(C)C)CC2)CC1 | 727
36 | CCN1C(=O)C2(CCN(S(=O)(=O)c3ccc(C)c(C)c3)CC2)c2ccccc21 | 1130
37 | CN(C)C(=O)c1ccc2c(c1)N(CC(=O)NCCCN1CCCC1=O)C(=O)C1CCCCN21 (configuration not stated) | 619
38 | CS(=O)(=O)c1ccc(CC(=O)N2CC(Cc3nncn3CC3CC3)C2)cc1 | 592
39 | CC(=O)Nc1ccc2c(c1)nc(CN1CCOCC1)n2C(C)C | 579
40 | Cc1ccc2[nH]cc(CCN3CC(C(=O)N4CCCCCC4)CC3=O)c2c1 (configuration not stated) | 800
41 | Cc1ccsc1C(=O)N1CCN(C(=O)c2cc(-c3ccccn3)n[nH]2)CC1 | 631
42 | Cc1nn(CC(=O)NCCCN2CCOCC2)c(=O)c2nc(-c3ccccc3)sc12 | 615
43 | Cc1cc(C)cc(S(=O)(=O)Nc2ccc3nc(N4CCN(C)CC4)cc(C(=O)O)c3c2)c1 | 612
44 | O=C(c1cc(C2CC2)[nH]n1)N1CCN(c2ccc(Cl)cc2)CC1 | 837
45 | CC(C)(CSc1nnnn1-c1ccccc1)NS(=O)(=O)c1ccccc1 | 862
46 | Cc1ccc2[nH]c(C(N)=O)c(N3CCCC3=O)c2c1 | 646
47 | CC1=C(c2ccc(C)cc2)S(=O)(=O)N=C1N1CCCC1 | 816
48 | Cc1nn(-c2ccc(Cl)cc2)c(C)c1S(=O)(=O)N1CCC(C(=O)N2CCCC2)CC1 | 868
49 | CC1CCCCC12NCCN=C2NCc1cccc(F)c1 (configuration not stated) | 640
50 | CC(C)c1nncn1C1CCN(S(=O)(=O)c2ccccc2Cl)CC1 | 716
51 | Cc1[nH]c(=O)[nH]c(=O)c1CC(=O)NCCc1cccs1 | 574
52 | CCNC(=O)C1CCN(c2cc(SCC(=O)Nc3ccc(C(=O)OCC)cc3)ncn2)CC1 | 725
53 | CN(C)Cc1ccc(S(=O)(=O)n2ccc(/C=C/C(=O)NO)c2)cc1 | 936
54 | Cc1ccc(C(C)NC(=O)C2CCN(c3nccnc3Oc3ccccc3)CC2)cc1C (configuration not stated) | 1070
55 | CSc1ccc(NC(=O)CN2C(=O)C3CCCN3C(=O)c3cc(C)ccc32)cc1 (configuration not stated) | 785

Other lines, results leading:

Row | RP-LC retention time [s] | Compound
56 | 813 | CN1C(=O)c2cc(C(=O)NCCCc3ccccc3)nn2CC1(C)C(=O)NCc1ccc(F)cc1 (configuration not stated)
57 | 698 | CCn1cc(-c2ccncc2)cc1C(=O)NCc1ccc(Br)cc1
58 | 729 | COCCc1noc(-c2cnc3nc(C)ccc3c2Nc2cccc(F)c2)n1
59 | 947 | Cc1[nH]c(-c2ccc(Cl)cc2)cc1C(=O)NC1CCCC1
60 | 918 | CCc1cccc(NC(=O)Cc2nnc3cc(-c4nc(C(C)C)no4)ccn23)c1
61 | 843 | CCn1cc(-c2nc(CC(=O)NCc3ccccc3F)cs2)c2cccnc21
62 | 1170 | O=S(=O)(Nc1cccc(F)c1)c1ccccc1-c1nc(-c2ccccc2)no1
63 | 993 | CC(C)Cn1cc(CCNS(=O)(=O)c2ccc(Cl)cc2)c2cccnc21
64 | 1020 | CCOC(=O)C1CCCN(S(=O)(=O)c2cc(-c3nnc(-c4ccccc4)o3)ccc2OC)C1 (configuration not stated)
65 | 877 | CCOC(=O)Cc1ccc(NC(=O)NC2CCN(c3ccc(C)c(C)c3)C2=O)cc1 (configuration not stated)
66 | 1110 | CCn1c(=O)c2ccccc2n(Cc2nc(-c3ccc(Br)cc3)no2)c1=O
67 | 905 | COc1ccc2[nH]cc(CCNC(=O)CC3CCN(S(=O)(=O)c4ccc(Cl)s4)CC3)c2c1
68 | 1250 | Cc1cccc(OCc2nc(-c3cccc(-c4csc(C)n4)c3)no2)c1
69 | 870 | CCC(C(=O)NCc1ccc(C)o1)n1nc(C)c2nn(-c3ccccc3)c(C)c2c1=O (configuration not stated)
70 | 1230 | Cc1ccc(S(=O)(=O)c2cnc(N3CCN(c4ccccc4Cl)CC3)nc2N)cc1
71 | 886 | CCCc1cc(N2CCN(c3ccccn3)CC2)n2ncc(-c3ccccc3)c2n1
72 | 869 | Cc1ccnn1-c1ccc(SCC(=O)Nc2ccccc2F)nn1
73 | 591 | O=C(Cn1c(=O)oc2ccccc21)N1C[C@@H](CO)[C@H](c2ccccn2)C1
74 | 695 | FC(F)(F)c1cccc(-c2ccc(CNC3CC3)o2)c1

Row | RP-LC retention time [s] | Compound
75 | 641 | CCCNCc1ccc(-c2ccccc2)o1
76 | 1140 | Cc1cccc(N2CCN(S(=O)(=O)c3ccc(-c4nnc(C5CCC5)o4)o3)CC2)c1
77 | 857 | Cc1ccc(C(=O)NCc2nn(C)c3ccccc23)c(C)c1
78 | 842 | O=C(c1ccccc1)c1ccc[nH]1
79 | 811 | Cc1nc2cc(-c3noc(C(C)NC(=O)c4ccccc4)n3)ccc2o1 (configuration not stated)
80 | 925 | COc1ccc(OCc2noc(CNC(=O)c3oc4cc(OC)ccc4c3C)n2)cc1
81 | 837 | Clc1cccc(-c2ccc(CNCc3ccco3)o2)c1
82 | 768 | O=C(NCCc1c[nH]c2ccc(Cl)cc12)c1ccc(CN2C(=O)CCn3nccc32)cc1
83 | 739 | Cn1cnc2ccc(-c3noc(-c4ccc(F)cc4)n3)cc21
84 | 668 | CC1CCC(C(=O)NC(Cc2c[nH]c3ccccc23)C(=O)Nc2ccncc2)CC1 (configuration not stated)
85 | 877 | CCOc1ccc(NC(=O)C2CCN(S(C)(=O)=O)c3cc(Cl)ccc3O2)cc1 (configuration not stated)
86 | 756 | Cc1ccc(CNC(=O)c2nc(-c3ccnc(N4CCCCC4)c3)no2)o1
87 | 816 | CCCNC(=O)N1CCCC1c1nc(-c2ccccc2)no1 (configuration not stated)
88 | 738 | COc1ccc(-c2nnc(N3CCC(C(=O)NCc4ccco4)CC3)o2)cc1
89 | 997 | O=C(Nc1ccc2ncsc2c1)c1sc2ccccc2c1Cl
90 | 951 | Cc1ccc(Nc2c(-c3ccccc3O)nc3ncccn23)cc1C
91 | 619 | COc1ccc(S(=O)Cc2ccc(C(=O)NCCCN3CCc4ccccc4C3)o2)cc1 (configuration not stated)
92 | 667 | COC(=O)Nc1nc(CC(=O)NCc2ccccc2Cl)cs1
